Legend:
PKA = assay: Cellular PKA activity: P-VASP band shift in U2OS Epac1 and Epac2 cell lines; type: cell-based; settings: PKA; average of Epac1 and Epac2 cell lines; relative to induction with forskolin and IBMX; Fig. 6C
Protocol: Rap•GTP levels were determined by precipitating GTP-bound Rap specifically from cell lysates and subsequent western Blotting with an α-Rap antibody (Santa Cruz Biotechnology). To generate stable cell lines, U2OS cells were transfected with pBabe-Flag-Epac1 (Epac1, homo sapiens, amino acids 1–881) or pBabe-Flag-Epac2 (Epac2, mus musculus, amino acids 1–993), selected for Epac expression and maintained under selection with 2 mg/l puromycin. The cells were cultured according to standard protocols. The activity of PKA was determined by western blotting with a monoclonal α-VASP antibody (BD Transduction Laboratories). Blots were developed by enhanced chemiluminescence (ECL) and the use of X-ray films; for quantification films were scanned. The intensities of the Rap•GTP bands and the upper band of VASP (P-VASP) were determined for each condition in ImageJ and normalized to the stimulation with forskolin and IBMX for each blot.

PKA-Iβ = target: T1, PKA-Iβ (Homo sapiens, UniProt P31321); assay: PKA activity assay, PKA-Iβ; type: biochemical; settings: PKAIβ
T1 construct: made in house
T1 sequence (P31321 whole entry): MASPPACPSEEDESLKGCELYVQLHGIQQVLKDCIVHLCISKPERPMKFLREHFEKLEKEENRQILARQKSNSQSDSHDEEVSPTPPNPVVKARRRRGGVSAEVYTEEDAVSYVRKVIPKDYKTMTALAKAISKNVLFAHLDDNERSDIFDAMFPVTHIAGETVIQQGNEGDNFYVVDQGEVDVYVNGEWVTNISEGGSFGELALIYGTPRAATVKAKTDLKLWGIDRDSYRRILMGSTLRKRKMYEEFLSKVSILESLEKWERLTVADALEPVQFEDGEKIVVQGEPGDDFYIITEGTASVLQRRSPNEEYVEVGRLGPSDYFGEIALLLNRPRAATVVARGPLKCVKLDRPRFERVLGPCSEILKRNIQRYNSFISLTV
Protocol: (§1) The recombinant human PKA catalytic subunit (Cα1) and the four human PKA regulatory subunits (RIα, RIβ, RIIα, RIIβ) were expressed, purified, and characterized as described. […] PKA holoenzymes were formed by mixing the R- and C-subunit at a molar ratio of 1.2:1 and extensive dialysis against 20 mM MOPS (pH 7.0), 150 mM NaCl, 2.5 mM β-mercaptoethanol, supplemented with 1 mM ATP and 10 mM MgCl2 for PKA-I at 4°C overnight. PKA holoenzymes were used at about 20 nM for the activation assay. The apparent activation constants (Kact) were determined by fitting the concentration-dependent activity to a sigmoid dose-response model.

PKA-IIβ = target: T2, PKA-IIβ (Homo sapiens, UniProt P31323); assay: PKA activity assay, PKA-IIβ; type: biochemical; settings: PKAIIβ
T2 construct: made in house
T2 sequence (P31323 whole entry): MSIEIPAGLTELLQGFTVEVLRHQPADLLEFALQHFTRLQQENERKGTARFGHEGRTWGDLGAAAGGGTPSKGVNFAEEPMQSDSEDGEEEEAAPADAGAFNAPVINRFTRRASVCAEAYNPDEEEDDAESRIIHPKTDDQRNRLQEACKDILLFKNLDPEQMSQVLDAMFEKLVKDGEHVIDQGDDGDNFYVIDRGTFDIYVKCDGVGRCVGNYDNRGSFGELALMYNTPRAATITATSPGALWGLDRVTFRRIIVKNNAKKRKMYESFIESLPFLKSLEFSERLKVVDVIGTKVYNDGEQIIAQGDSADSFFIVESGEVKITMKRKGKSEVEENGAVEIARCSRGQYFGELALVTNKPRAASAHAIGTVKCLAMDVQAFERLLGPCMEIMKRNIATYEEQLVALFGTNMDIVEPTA
Protocol: as §1

Epac2^fl = target: T3, Epac2^fl (Mus musculus, UniProt Q9EQZ6); assay: Epac activation assay, full length Epac2; type: biochemical; design: made in house
T3 sequence (Q9EQZ6 1-993 isoform Q9EQZ6-3): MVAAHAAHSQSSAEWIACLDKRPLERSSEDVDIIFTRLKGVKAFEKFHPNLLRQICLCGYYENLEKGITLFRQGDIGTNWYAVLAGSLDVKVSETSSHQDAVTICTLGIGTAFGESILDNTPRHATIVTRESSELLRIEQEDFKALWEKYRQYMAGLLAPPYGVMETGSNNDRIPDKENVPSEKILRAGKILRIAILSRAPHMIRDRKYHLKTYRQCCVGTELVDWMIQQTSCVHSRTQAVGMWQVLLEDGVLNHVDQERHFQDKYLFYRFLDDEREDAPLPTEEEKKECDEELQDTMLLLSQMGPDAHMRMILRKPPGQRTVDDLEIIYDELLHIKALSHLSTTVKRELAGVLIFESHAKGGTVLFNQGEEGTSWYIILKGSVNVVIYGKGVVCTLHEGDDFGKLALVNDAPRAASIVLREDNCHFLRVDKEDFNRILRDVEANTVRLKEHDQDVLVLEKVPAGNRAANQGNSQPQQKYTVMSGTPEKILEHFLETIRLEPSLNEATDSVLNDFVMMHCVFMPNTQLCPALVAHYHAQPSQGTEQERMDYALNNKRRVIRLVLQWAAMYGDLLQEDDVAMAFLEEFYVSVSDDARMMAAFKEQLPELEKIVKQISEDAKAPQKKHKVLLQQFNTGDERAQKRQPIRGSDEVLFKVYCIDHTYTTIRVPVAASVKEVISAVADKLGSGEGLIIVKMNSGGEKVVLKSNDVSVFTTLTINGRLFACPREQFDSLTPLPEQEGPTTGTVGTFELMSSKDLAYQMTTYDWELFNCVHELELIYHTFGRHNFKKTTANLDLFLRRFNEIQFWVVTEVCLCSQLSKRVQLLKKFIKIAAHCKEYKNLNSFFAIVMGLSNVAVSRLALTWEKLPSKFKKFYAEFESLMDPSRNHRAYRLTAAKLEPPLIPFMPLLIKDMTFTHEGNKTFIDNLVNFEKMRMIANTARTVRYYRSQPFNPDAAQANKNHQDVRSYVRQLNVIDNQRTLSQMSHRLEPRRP
Protocol: Murine Epac2 was used as all previous structural studies were performed with it.
The activity of Epac was determined by a fluorescence assay. […] The fluorescence intensity of Rap1B•mGDP is approximately twice that of free mGDP, and thus, nucleotide exchange can be observed as a decay in fluorescence upon the addition of excess unlabeled GDP.

With `Nc1ncnc2c1nc(Sc1ccc(Cl)cc1)n2[C@@H]1O[C@@H]2COP(=O)(O)O[C@H]2[C@H]1O` [L-026, 8-pCPT-cAMP] the “rel. P-VASP” value (PKA) was 0.9052.
`Cc1ccc(CSc2nc3c(N)ncnc3n2[C@@H]2O[C@@H]3CO[P@](O)(=S)O[C@H]3[C@H]2O)cc1` [S-230, Sp-8-pMeBnT-cAMPS] was tested, and the “A (PKA activity)” value (PKA-Iβ; concentration 1.00E+01 μM) was 2.81 U/mg, the “A (PKA activity)” value (PKA-Iβ; concentration 1.00E-01 μM) was 5.21 U/mg and the “A (PKA activity)” value (PKA-Iβ; concentration 1.00E-03 μM) was 4.71 U/mg. The “A (PKA activity)” value (PKA-Iβ; concentration 1.00E-05 μM) was 4.53 U/mg, the “A (PKA activity)” value (PKA-Iβ; concentration 2.50E+02 μM) was 3.19 U/mg and the “A (PKA activity)” value (PKA-IIβ; concentration 1 μM) was 2.854 U/mg. For the same compound, the “A (PKA activity)” value (PKA-IIβ; concentration 1.00E+01 μM) was 3.182 U/mg, the “A (PKA activity)” value (PKA-IIβ; concentration 1.00E-01 μM) was 1.472 U/mg and the “A (PKA activity)” value (PKA-IIβ; concentration 1.00E-02 μM) was 1.965 U/mg. For the same compound, the “A (PKA activity)” value (PKA-IIβ; concentration 1.00E-03 μM) was 1.941 U/mg, the “A (PKA activity)” value (PKA-IIβ; concentration 1.00E-05 μM) was 2.019 U/mg and the “A (PKA activity)” value (PKA-IIβ; concentration 5.00E+01 μM) was 6.801 U/mg. For the same compound, the “A (PKA activity)” value (PKA-IIβ; concentration 5.00E+02 μM) was 9.038 U/mg, the kobs (Epac2^fl; 0.2 μM compound) was 2.5e-05 s⁻¹ and the kobs (Epac2^fl; 0.3 μM compound) was 2.9e-05 s⁻¹. It also gave a kobs (Epac2^fl; 0.4 μM compound) of 3.1e-05 s⁻¹, a kobs (Epac2^fl; 0.5 μM compound) of 3.3e-05 s⁻¹ and a kobs (Epac2^fl; 0.6 μM compound) of 3.6e-05 s⁻¹. It also gave a kobs (Epac2^fl; 0.7 μM compound) of 4e-05 s⁻¹, a kobs (Epac2^fl; 0.8 μM compound) of 4.1e-05 s⁻¹ and a kobs (Epac2^fl; 1 μM compound) of 4.7e-05 s⁻¹. It also gave a kobs (Epac2^fl; 2 μM compound) of 8.9e-05 s⁻¹, a kobs (Epac2^fl; 3 μM compound) of 0.000128 s⁻¹ and a kobs (Epac2^fl; 4 μM compound) of 0.000139 s⁻¹. The kobs (Epac2^fl; 5 μM compound) was 0.000145 s⁻¹, the kobs (Epac2^fl; 6 μM compound) was 0.000194 s⁻¹ and the kobs (Epac2^fl; 7 μM compound) was 0.000209 s⁻¹. It also gave a kobs (Epac2^fl; 8 μM compound) of 0.000213 s⁻¹, a kobs (Epac2^fl; 10 μM compound) of 0.000238 s⁻¹ and a kobs (Epac2^fl; 20 μM compound) of 0.000358 s⁻¹. For the same compound, the kobs (Epac2^fl; 30 μM compound) was 0.000429 s⁻¹, the kobs (Epac2^fl; 40 μM compound) was 0.000467 s⁻¹ and the kobs (Epac2^fl; 50 μM compound) was 0.000491 s⁻¹. It also gave a kobs (Epac2^fl; 60 μM compound) of 0.000519 s⁻¹, a kobs (Epac2^fl; 70 μM compound) of 0.00055 s⁻¹ and a kobs (Epac2^fl; 80 μM compound) of 0.000558 s⁻¹. For the same compound, the kobs (Epac2^fl; 100 μM compound) was 0.000582 s⁻¹, the kobs (Epac2^fl; 200 μM compound) was 0.000643 s⁻¹ and the kobs (Epac2^fl; 400 μM compound) was 0.00061 s⁻¹. It also gave a kobs (Epac2^fl; 600 μM compound) of 0.000556 s⁻¹ and a kobs (Epac2^fl; 800 μM compound) of 0.000527 s⁻¹.
With `Nc1ncnc2c1ncn2[C@@H]1O[C@@H]2COP(=O)(O)O[C@H]2[C@H]1O` [cAMP, reference compound] the “A (PKA activity)” value (PKA-Iβ; concentration 1 μM) was 2.35E+01 U/mg, the “A (PKA activity)” value (PKA-Iβ; concentration 1.00E+01 μM) was 2.37E+01 U/mg and the “A (PKA activity)” value (PKA-Iβ; concentration 1.00E+02 μM) was 2.44E+01 U/mg. For the same compound, the “A (PKA activity)” value (PKA-Iβ; concentration 1.00E-01 μM) was 2.23E+01 U/mg, the “A (PKA activity)” value (PKA-Iβ; concentration 1.00E-02 μM) was 7.2375 U/mg and the “A (PKA activity)” value (PKA-Iβ; concentration 1.00E-03 μM) was 2.9 U/mg. The “A (PKA activity)” value (PKA-Iβ; concentration 1.00E-05 μM) was 4.525 U/mg, the “A (PKA activity)” value (PKA-Iβ; concentration 2.50E-02 μM) was 1.08E+01 U/mg and the “A (PKA activity)” value (PKA-Iβ; concentration 5.00E-02 μM) was 1.54E+01 U/mg. The “A (PKA activity)” value (PKA-IIβ; concentration 1 μM) was 2.14E+01 U/mg, the “A (PKA activity)” value (PKA-IIβ; concentration 1.00E+01 μM) was 2.50E+01 U/mg and the “A (PKA activity)” value (PKA-IIβ; concentration 1.00E+02 μM) was 2.46E+01 U/mg. The “A (PKA activity)” value (PKA-IIβ; concentration 1.00E-01 μM) was 1.13E+01 U/mg, the “A (PKA activity)” value (PKA-IIβ; concentration 1.00E-02 μM) was 4.087 U/mg and the “A (PKA activity)” value (PKA-IIβ; concentration 1.00E-03 μM) was 4.309 U/mg. For the same compound, the “A (PKA activity)” value (PKA-IIβ; concentration 1.00E-04 μM) was 4.252 U/mg, the “A (PKA activity)” value (PKA-IIβ; concentration 1.00E-05 μM) was 2.8563 U/mg and the “A (PKA activity)” value (PKA-IIβ; concentration 2.50E-01 μM) was 1.57E+01 U/mg. The “A (PKA activity)” value (PKA-IIβ; concentration 2.50E-02 μM) was 5.477 U/mg, the “A (PKA activity)” value (PKA-IIβ; concentration 5.00E-01 μM) was 1.81E+01 U/mg and the “A (PKA activity)” value (PKA-IIβ; concentration 5.00E-02 μM) was 9.071 U/mg. For the same compound, the kobs (Epac2^fl; 0.2 μM compound) was 1.9e-05 s⁻¹, the kobs (Epac2^fl; 0.3 μM compound) was 2e-05 s⁻¹ and the kobs (Epac2^fl; 0.4 μM compound) was 2.1e-05 s⁻¹. The kobs (Epac2^fl; 0.5 μM compound) was 2.1e-05 s⁻¹, the kobs (Epac2^fl; 0.6 μM compound) was 2.5e-05 s⁻¹ and the kobs (Epac2^fl; 0.7 μM compound) was 2.36e-05 s⁻¹. The kobs (Epac2^fl; 0.8 μM compound) was 2.47e-05 s⁻¹, the kobs (Epac2^fl; 1 μM compound) was 2.84e-05 s⁻¹ and the kobs (Epac2^fl; 2 μM compound) was 3.47e-05 s⁻¹. For the same compound, the kobs (Epac2^fl; 3 μM compound) was 4.1e-05 s⁻¹, the kobs (Epac2^fl; 4 μM compound) was 4.71e-05 s⁻¹ and the kobs (Epac2^fl; 5 μM compound) was 5.23e-05 s⁻¹. For the same compound, the kobs (Epac2^fl; 6 μM compound) was 5.05e-05 s⁻¹, the kobs (Epac2^fl; 7 μM compound) was 5.49e-05 s⁻¹ and the kobs (Epac2^fl; 8 μM compound) was 6.35e-05 s⁻¹. It also gave a kobs (Epac2^fl; 10 μM compound) of 7.22e-05 s⁻¹, a kobs (Epac2^fl; 20 μM compound) of 0.000116 s⁻¹ and a kobs (Epac2^fl; 30 μM compound) of 0.000142 s⁻¹. For the same compound, the kobs (Epac2^fl; 40 μM compound) was 0.000159 s⁻¹, the kobs (Epac2^fl; 50 μM compound) was 0.000167 s⁻¹ and the kobs (Epac2^fl; 60 μM compound) was 0.000192 s⁻¹. For the same compound, the kobs (Epac2^fl; 70 μM compound) was 0.000198 s⁻¹, the kobs (Epac2^fl; 80 μM compound) was 0.000203 s⁻¹ and the kobs (Epac2^fl; 100 μM compound) was 0.000207 s⁻¹. The kobs (Epac2^fl; 200 μM compound) was 0.000219 s⁻¹, the kobs (Epac2^fl; 400 μM compound) was 0.000212 s⁻¹ and the kobs (Epac2^fl; 600 μM compound) was 0.000207 s⁻¹. For the same compound, the kobs (Epac2^fl; 800 μM compound) was 0.000224 s⁻¹.
